Source: patent US10442791B2, “DNA-PK inhibitors” (Vertex Pharmaceuticals Incorporated, priority 2012, dated 2019)

How the values were obtained:
Type in all cases: cell-based
DLD-1 = test: Cell viability following irradiation (CellTiter-Glo), DLD-1; settings: DLD-1 (Colorectal Cancer), viability at 6 days
Experimental: (§1) To evaluate the radiosensitizing effects of compounds of the invention in combination with ionizing radiation (IR), a broad panel of cell lines across multiple tumor types and genetic backgrounds were tested. Cells were incubated with DMSO or compound 578 for 30 minutes and then exposed to various doses of radiation (0, 0.5, 1, 2, 4, 6, 8, and 16 Gy). Cell viability was assessed at 6 days using CellTiter-Glo® (Promega, Inc).

HCT116 = test: Cell viability following irradiation (CellTiter-Glo), HCT116; settings: HCT116 (Colorectal Cancer), viability at 6 days
Experimental: as §1

HT1080 = test: Cell viability following irradiation (CellTiter-Glo), HT1080; settings: HT1080 (Fibrosarcoma), viability at 6 days
Experimental: as §1

SNU449 = test: Cell viability following irradiation (CellTiter-Glo), SNU449; settings: SNU449 (Hepatocellular Carcinoma), viability at 6 days
Experimental: as §1

H838 = test: Cell viability following irradiation (CellTiter-Glo), H838; settings: H838 (Lung Cancer), viability at 6 days
Experimental: as §1

Miapaca2 = test: Cell viability following irradiation (CellTiter-Glo), Miapaca2; settings: Miapaca2 (Pancreatic cancer), viability at 6 days
Experimental: as §1

PC3 = test: Cell viability following irradiation (CellTiter-Glo), PC3; settings: PC3 (Prostate Cancer), viability at 6 days
Experimental: as §1

In the case of CNC(=O)c1ccnc2c([C@H](C)CNc3cc(-c4cnc(C)nc4)ncn3)cccc12 [Compound 578, (S)—N-methyl-8-(1-((2′-methyl-[4,5′-bipyrimidin]-6-yl)amino)propan-2-yl)quinoline-4-carboxamide], the “EC50 IR” value (DLD-1; compound 578 0.7 μM + IR) is reported as 0.6 Gy, the “EC50 IR” value (DLD-1; compound 578 2.1 μM + IR) is reported as 0.7 Gy and the “EC50 IR” value (HCT116; compound 578 0.7 μM + IR) is reported as 0.5 Gy. For the same molecule, the “EC50 IR” value (HCT116; compound 578 2.1 μM + IR) was under 0.5 Gy, the “EC50 IR” value (HT1080; compound 578 0.7 μM + IR) was 1.9 Gy and the “EC50 IR” value (HT1080; compound 578 2.1 μM + IR) was 0.9 Gy. For the same molecule, the “EC50 IR” value (SNU449; compound 578 0.7 μM + IR) was 3.3 Gy, the “EC50 IR” value (SNU449; compound 578 2.1 μM + IR) was 1.8 Gy and the “EC50 IR” value (H838; compound 578 0.7 μM + IR) was 0.6 Gy. The “EC50 IR” value (H838; compound 578 2.1 μM + IR) was under 0.5 Gy, the “EC50 IR” value (Miapaca2; compound 578 0.7 μM + IR) was 2.4 Gy and the “EC50 IR” value (Miapaca2; compound 578 2.1 μM + IR) was 1.9 Gy. The “EC50 IR” value (PC3; compound 578 0.7 μM + IR) was 0.5 Gy and the “EC50 IR” value (PC3; compound 578 2.1 μM + IR) was under 0.5 Gy.
